Ends that are not written are not given here.
Experiments:
[1] = test system: C. elegans wild-type strain N2; assay: C. elegans oxidative stress assay (H2O2); format: in vivo, Caenorhabditis elegans; conditions: 2 mM H2O2 for 5 h
Description: (§1) Wild-type Bristol strain N2 and the transgenic strain CL4176 (smg-1^ts [pAF29(myo-3/Aβ1–42/let UTR) + pRF4(rol-6(su10069))]) were obtained from the Caenorhabditis Genetics Center (College of Biological Sciences, University of Minnesota, Saint Paul, MN, USA) and were used for oxidative stress experiments and paralysis assays, respectively. C. elegans strains were routinely propagated on Nematode Growth Medium (NGM) plates with Escherichia coli strain OP50 as a food source at 20 °C (N2) or at 16 °C (CL4176). Worms were synchronized by isolating eggs from gravid adults at 20 °C (N2) or at 16 °C (CL4176), and eggs were hatched overnight in NGM plates.
(§2) In the oxidative and paralysis experiments, worms were fed with the different compounds from egg to adult stages, and transferred to new plates every two days.
For oxidative stress experiments, strain N2 was egg-synchronized in NGM plates (control medium) and NGM supplemented with 0.1 µg/mL peptides or 0.1 mg/mL vitamin C (positive control). The viability of C. elegans was assessed after 2 mM hydrogen peroxide (H2O2)-induced oxidative stress for 5 h. Experiments were carried out in triplicate.

[2] = biological target: T1, prolyl endopeptidase (PEP) (Elizabethkingia meningoseptica, UniProt P27028); assay: biochemical; format: biochemical; conditions: for PEP Residual Activity (%) / PEP inhibition (in words) / PEP inhibitory activity (% inhibition): peptide 1 mg/mL; for PEP Residual Activity (%): % of control without peptide (100%), pH 7, 30 °C, 30 min, mean ± SD of three replicates, SD; for PEP inhibition (in words): P-containing peptides; for PEP inhibition: highest concentration tested, 3.3 mg/mL
T1 construct: purchased Seikagaku Corporation (Tokyo, Japan)
T1 sequence (P27028 21-705): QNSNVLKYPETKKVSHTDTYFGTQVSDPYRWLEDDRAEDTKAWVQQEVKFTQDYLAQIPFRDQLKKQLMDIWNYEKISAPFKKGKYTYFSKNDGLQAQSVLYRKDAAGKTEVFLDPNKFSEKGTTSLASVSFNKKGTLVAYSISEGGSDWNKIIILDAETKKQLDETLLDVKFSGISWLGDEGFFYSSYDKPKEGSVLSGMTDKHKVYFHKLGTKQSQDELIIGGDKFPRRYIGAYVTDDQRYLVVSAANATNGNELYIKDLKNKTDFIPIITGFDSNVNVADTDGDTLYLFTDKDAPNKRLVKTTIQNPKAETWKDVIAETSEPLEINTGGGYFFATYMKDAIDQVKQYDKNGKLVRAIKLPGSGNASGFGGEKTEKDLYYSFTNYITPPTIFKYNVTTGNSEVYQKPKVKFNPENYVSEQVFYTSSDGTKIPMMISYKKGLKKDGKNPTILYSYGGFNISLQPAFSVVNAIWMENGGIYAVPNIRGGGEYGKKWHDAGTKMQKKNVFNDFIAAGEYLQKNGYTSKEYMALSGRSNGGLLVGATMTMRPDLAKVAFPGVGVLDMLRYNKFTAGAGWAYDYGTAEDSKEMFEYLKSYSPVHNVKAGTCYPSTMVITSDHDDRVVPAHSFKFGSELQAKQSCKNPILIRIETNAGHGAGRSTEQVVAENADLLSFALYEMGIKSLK
Description: The PEP activity was determined as previously described with minor modifications. Enzyme assays were performed in 96-well microplates using Z-Gly-Pro-p-nitroanilide as a substrate and measuring the increase in absorbance at 410 nm due to the release of p-nitroaniline. Ten µL of tenfold peptide or hydrolysate solution in 100 mM sodium phosphate buffer, pH 7 ([…] for LFHs), 30 µL of a 0.1 U/mL PEP solution in 100 mM sodium phosphate buffer (pH 7) and 35 µL of the same sodium phosphate buffer were pre-incubated at 30 °C for 5 min, and the mixture incubated with 25 µL of 2 mM Z-Gly-Pro-p-nitroanilide in 40% 1,4-dioxane for 30 min at the same temperature. The reaction was finished by the addition of 100 µL 10% Triton X-100 in 1 M sodium acetate buffer (pH 4), and the absorbance measured at 410 nm in a microplate reader. Data are expressed as the percentage of PEP residual activity with respect to a control without peptide (100%).
The IC50 value of a peptide was defined as the concentration required to inhibit 50% of the PEP activity and the value for each experiment was estimated by non-linear regression of the experimental data to a four-parameter logistic curve using the software package SigmaPlot v 13.0 (SPSS Inc., Chicago, IL, USA).

[3] = test system: transgenic C. elegans strain CL4176 engineered to express human Aβ1–42; assay: C. elegans paralysis assay (Aβ1–42-induced paralysis); format: in vivo, Caenorhabditis elegans
Description: as §1, §2
Paralysis is induced in strain CL4176 by the expression of a muscle-specific Aβ1–42 which depends on up-shifting temperature from 16 to 25 °C [7, 8]. For paralysis experiments, strain CL4176 maintained at 16 °C was egg-synchronized in plates containing NGM (control medium) and NGM with peptides (0.02–5 µg/mL). Transgene expression was induced by up-shifting the temperature from 16 to 25 °C, starting 24 h after egg laying and maintained for 24 h. The worms were incubated at 20 °C until all the worms in the experiment became paralyzed. Paralysis was scored 24 h after induction. Paralysis in induced worms was compared with non-induced worms (maintained at 16 °C until the end of the paralysis assay). Experiments were carried out at least in duplicate.

[4] = biological target: T1, prolyl endopeptidase (PEP); parameters: method as in 2 sources, ref 29 = [29]; PMID 26574880; doi:10.1039/C5FO01262G; 29. Hsieh C.-H. Wang T.-Y. Hung C.-C. Hsieh Y.-L. Hsu K.-C. Isolation of prolyl endopeptidase inhibitory peptides from a sodium caseinate hydrolysate Food Funct. 2016 7 565 573 10.1039/C5FO01262G 2657 ||| ref 31 = [31]; PMID 23675471; doi:10.1371/journal.pone.0063283; 31. Martorell P. Bataller E. Llopis S. Gonzalez N. Alvarez B. Monton F. Ortiz P. Ramon D. Genoves S. A cocoa peptide protects Caenorhabditis elegans from oxidative stress and β-amyloid peptide toxicit; conditions: cocoa hydrolysate peptide; cited from earlier work
[5] = 0.1 µg/mL, average paralysis curve of the independent trials
[6] = dose 0.1 µg/mL, trial 1, hours after temperature up-shift
[7] = dose 0.1 µg/mL, trial 2, hours after temperature up-shift
[8] = dose 0.1 µg/mL, trial 3, hours after temperature up-shift

O=C1O[C@H]([C@@H](O)CO)C(O)=C1O [vitamin C, reference compound]
worm survival after oxidative stress (in words) ([1]; vitamin C 10 µg/mL (Figure 4; method says 0.1 mg/mL), positive control): significant protection

Ac-RKWFHLW-NH2 [PACEI48L, synthetic heptapeptide Ac-RKWFHLW-NH2]
PEP Residual Activity (%) [2]: 61.4 ± 4.4 (a) %

Ac-RKWFLHW-NH2 [PACEI49L, synthetic heptapeptide Ac-RKWFLHW-NH2]
PEP Residual Activity (%) [2]: 46.8 ± 9.1 (b) %

Ac-RKWHFLW-NH2 [PACEI50L]
PEP Residual Activity (%) [2]: 6.4 ± 2.3 (c) %
decrease of paralyzed worms compared with control fed nematodes at 49 h ([3]; 0.1 µg/mL, average curves): 25.2%
% of non-paralyzed worms at onset paralysis [3, 5]: 99%
Onset Paralysis, time [3, 5]: 41 h
Paralyzed Worms (percentage at 49 h) [3, 5]: 42.3%
effect on paralysis (in words) ([3]; dose 0.02 µg/mL, data not shown): did not provide any effect
% of non-paralyzed worms at onset paralysis ([3]; dose 0.1 µg/mL, trial 1): 98.4%
Paralyzed Worms at 49 h ([3]; dose 0.1 µg/mL, trial 1): 48.7%
Onset Paralysis, time [3, 6]: 41 h
% of non-paralyzed worms at onset paralysis ([3]; dose 0.1 µg/mL, trial 2): 99.1%
Paralyzed Worms at 49 h ([3]; dose 0.1 µg/mL, trial 2): 21.9%
Onset Paralysis, time [3, 7]: 43 h
% of non-paralyzed worms at onset paralysis ([3]; dose 0.1 µg/mL, trial 3): 97.5%
Paralyzed Worms at 49 h ([3]; dose 0.1 µg/mL, trial 3): 56.2%
Onset Paralysis, time [3, 8]: 43 h
% of non-paralyzed worms at onset paralysis ([3]; dose 0.5 µg/mL, trial 1): 96.7%
Paralyzed Worms at 49 h ([3]; dose 0.5 µg/mL, trial 1): 41.3%
Onset Paralysis, time ([3]; dose 0.5 µg/mL, trial 1, hours after temperature up-shift): 45 h
% of non-paralyzed worms at onset paralysis ([3]; dose 0.5 µg/mL, trial 2): 99.2%
Paralyzed Worms at 49 h ([3]; dose 0.5 µg/mL, trial 2): 41.7%
Onset Paralysis, time ([3]; dose 0.5 µg/mL, trial 2, hours after temperature up-shift): 43 h
worm survival after oxidative stress (in words) ([1]; peptide 0.1 µg/mL, triplicate): none of them was able to increase the worm survival

Ac-RKWHLFW-NH2 [PACEI51L, synthetic heptapeptide Ac-RKWHLFW-NH2]
PEP Residual Activity (%) [2]: 71.6 ± 4.9 (a) %

Ac-RKWLFHW-NH2 [PACEI52L, synthetic heptapeptide Ac-RKWLFHW-NH2]
PEP Residual Activity (%) [2]: 65.9 ± 3.6 (a) %

Ac-RKWLHFW-NH2 [PACEI53L, synthetic heptapeptide Ac-RKWLHFW-NH2]
PEP Residual Activity (%) [2]: 71.5 ± 4.5 (a) %

DNYDNSAGKWWVT [Peptide 13L]
IC50 (PEP inhibition) [4]: 190 µg/mL

DRDQY [PKH1, synthetic peptide identified in proteinase K lactoferrin hydrolysate, DRDQY]
PEP Residual Activity (%) [2]: 102.7 ± 7.0%

DRDQYELL [PKH7, synthetic peptide identified in proteinase K lactoferrin hydrolysate, DRDQYELL]
PEP Residual Activity (%) [2]: 115.3 ± 4.2 %

ENLPEKA [PKH3, synthetic peptide identified in proteinase K lactoferrin hydrolysate, ENLPEKA]
PEP Residual Activity (%) [2]: 97.1 ± 0.1%
PEP inhibition (in words) [2]: failed to inhibit PEP

GGRPTYEEY [PKH5, synthetic peptide identified in proteinase K lactoferrin hydrolysate, …]
PEP Residual Activity (%) [2]: 96.9 ± 2.1%
PEP inhibition (in words) [2]: failed to inhibit PEP

GILRPY [PKH6, synthetic peptide identified in proteinase K lactoferrin hydrolysate, GILRPY]
PEP Residual Activity (%) [2]: 97.2 ± 4.0%
PEP inhibition (in words) [2]: failed to inhibit PEP

GILRPYL [PKH10, synthetic peptide identified in proteinase K lactoferrin hydrolysate, GILRPYL]
PEP Residual Activity (%) [2]: 103.9 ± 0.8%
PEP inhibition (in words) [2]: failed to inhibit PEP

NEGLTW [PKH8, LF-derived hexapeptide NEGLTW]
PEP inhibitory activity (% inhibition) [2]: 12%
PEP Residual Activity (%) [2]: 87.1 ± 1.0 %

NIPMGL [PKH9, synthetic peptide identified in proteinase K lactoferrin hydrolysate, NIPMGL]
PEP Residual Activity (%) [2]: 95.5 ± 3.4%
PEP inhibition (in words) [2]: failed to inhibit PEP

RIPSKV [PKH4, synthetic peptide identified in proteinase K lactoferrin hydrolysate, RIPSKV]
PEP Residual Activity (%) [2]: 109.6 ± 2.2 %
PEP inhibition (in words) [2]: failed to inhibit PEP

RKAHFLA [PACEI50L-v2, PACEI50L derivative, both W residues at position 3 and 7 replaced with A, RKAHFLA]
PEP inhibition [2]: did not exhibit a clear inhibitory effect
final percentage of non-paralyzed worms, lower than the control conditions by ([3]; 0.1 µg/mL, average curves): 5.6%
% of non-paralyzed worms at onset paralysis [3, 5]: 92%
Onset Paralysis, time [3, 5]: 41 h
Paralyzed Worms (percentage at 49 h) [3, 5]: 73.1%
% of non-paralyzed worms at onset paralysis ([3]; dose 0.1 µg/mL, trial 1): 91.3%
Paralyzed Worms at 49 h ([3]; dose 0.1 µg/mL, trial 1): 74.9%
Onset Paralysis, time [3, 6]: 41 h
% of non-paralyzed worms at onset paralysis ([3]; dose 0.1 µg/mL, trial 2): 90.7%
Paralyzed Worms at 49 h ([3]; dose 0.1 µg/mL, trial 2): 75.9%
Onset Paralysis, time [3, 7]: 41 h
% of non-paralyzed worms at onset paralysis ([3]; dose 0.1 µg/mL, trial 3): 94.7%
Paralyzed Worms at 49 h ([3]; dose 0.1 µg/mL, trial 3): 68.4%
Onset Paralysis, time [3, 8]: 41 h

RKWHFLA [PACEI50L-v1]
PEP inhibition [2]: 20%
% of non-paralyzed worms at onset paralysis [3, 5]: 94%
Onset Paralysis, time [3, 5]: 41 h
Paralyzed Worms (percentage at 49 h) [3, 5]: 62.8%
% of non-paralyzed worms at onset paralysis ([3]; dose 0.1 µg/mL, trial 1): 98.0%
Paralyzed Worms at 49 h ([3]; dose 0.1 µg/mL, trial 1): 62.5%
Onset Paralysis, time [3, 6]: 41 h
% of non-paralyzed worms at onset paralysis ([3]; dose 0.1 µg/mL, trial 2): 91.7%
Paralyzed Worms at 49 h ([3]; dose 0.1 µg/mL, trial 2): 71.9%
Onset Paralysis, time [3, 7]: 41 h
% of non-paralyzed worms at onset paralysis ([3]; dose 0.1 µg/mL, trial 3): 93.3%
Paralyzed Worms at 49 h ([3]; dose 0.1 µg/mL, trial 3): 53.7%
Onset Paralysis, time [3, 8]: 41 h

SVDGKEDLIA [PKH11-v1]
IC50 [2]: 2870 µM

SVDGKEDLIW [PKH11]
IC50 [2]: 1810 µM
PEP inhibitory activity (% inhibition) [2]: 22%
PEP Residual Activity (%) [2]: 78.0 ± 3.1 %
